Results published in the METLIN SMRT retention time set (Domingo-Almenara et al. 2019).

Assay: gradient 5% acetonitrile 3 min, to 50% in 2 min, to 85% in 15 min, held 3 min, 100 µL/min
Details: column: Zorbax Extend-C18 2.1 x 50 mm; eluents: water / acetonitrile, 0.1% formic acid
How it was run: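 A Zorbax Extend-C18 column (2.1 × 50 mm, 1.8 μm) run at 100 μL/min with water and acetonitrile, both containing 0.1% formic acid, separated mixtures of ~100 pure standards. The HPLC was coupled to a quadrupole time-of-flight mass spectrometer operated in positive and negative ionization mode, with dead and dwell volumes of 40 μL and 900 μL. Each retention time was taken from a computationally picked adduct peak that was then manually inspected.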

Row | Structure (SMILES) | RP-LC retention time [s]
1 | CCOc1ccc(CC(=O)NCC(=O)Nc2nc3ccccc3[nH]2)cc1OCC | 652
2 | CCOC(=O)c1cccc(NC(=O)Cc2csc3nc(-c4ccc(OC)c(OC)c4)cn23)c1 | 761
3 | O=C(Cn1nc2n(c1=O)CCCC2)Nc1ccc(F)c(Cl)c1 | 670
4 | CCOC(=O)Cn1c(C2CC(=O)N(c3ccc(F)cc3)C2)nc2ccccc21 (stereo not given) | 766
5 | CC(C)c1ccc2c(c1)-c1ccccc1S(=O)(=O)N2CC(=O)NCCN1CCOCC1 | 692
6 | O=c1ccc(-c2cccc(Cl)c2)nn1CCc1nc(-c2ccc(F)cc2)no1 | 1060
7 | COc1ccc(C(CC(=O)N2CCN(c3ccccn3)CC2)N2Cc3ccccc3C2=O)cc1OC (stereo not given) | 612
8 | CCOc1ccccc1NC(=O)Cn1nc2n(c1=O)CCCC2 | 655
9 | CCN(C(=O)CC(=O)OC)c1nc(-c2ccc(C)cc2)cs1 | 1070
10 | CCN(CC)C(=O)N1CC(n2cc(C(=O)N3CCCC3)nn2)C1 | 646
11 | CCc1ccc(CNC(=O)C2CCCN(c3nc4c(s3)c(C)nn4-c3ccc(F)cc3)C2)cc1 (stereo not given) | 1240
12 | O=C(c1cc(Cl)ccc1F)N1CCN(c2cc(-c3cccs3)[nH]n2)CC1 | 833
13 | CCn1nccc1C(=O)N1CCC2(CC1)C(=O)N(C)c1ccccc12 | 630
14 | COc1cccc(-n2nnc(-c3nsc(Nc4ccccc4)n3)c2C)c1 | 990
15 | COc1ccc(Cn2nc3ccc(S(=O)(=O)N4CCCCC4)cn3c2=O)cc1 | 900
16 | COCCN1C(=O)c2ccccc2C(C(=O)Nc2ccc(NC(C)=O)cc2)C12CCCCC2 (stereo not given) | 706
17 | N#Cc1cccc(C(=O)Nc2ccc3cn[nH]c3c2)c1 | 659
18 | CCC(C)NC(=O)CC1CCN(C(=O)c2[nH]c(C)cc2C)CC1 (stereo not given) | 686
19 | CCCN1C(=O)c2cccnc2Sc2cc(C(=O)NC3CCCC3)ccc21 | 837
20 | O=C1CCC2(CCN1)CCN(S(=O)(=O)c1ccc(Cl)c(Cl)c1)CC2 | 839
21 | CCN1CCn2cc(S(=O)(=O)N3CCCc4ccccc43)cc2C1=O | 800
22 | COCCNC(=O)C1CCN(c2nc3ccc(-c4ccc(F)cc4)nc3s2)CC1 | 835
23 | CCc1cccc(NC(=O)Cn2nc(N3CCSCC3)c3ccccc3c2=O)c1 | 940

Row | Structure (SMILES) | RP-LC retention time [s]
24 | O=C(NCCc1c[nH]c2ccc(Cl)cc12)c1cc(-c2ccccn2)nc2ccccc12 | 959
25 | COc1ccc2nc(NC(=O)C3CCN(C(=O)c4ccc(-c5noc(C)n5)cc4)CC3)sc2c1 | 803
26 | CC(C)N1CCC(CC(=O)N2CCc3c(c(-c4nc(-c5ccccc5)no4)nn3C)C2)CC1 | 654
27 | COc1ccc(-c2nc3cccnc3n2C2CCN(C(=O)c3ccco3)C2)cc1 (stereo not given) | 685
28 | CCc1noc(NC(C)=O)c1-c1ccc(C)c(S(=O)(=O)NC2CCCC2)c1 | 808
29 | O=C(CSC1CCc2ccccc2NC1=O)Nc1ccc(Cl)cc1Cl (stereo not given) | 930
30 | CN(C)CC(=O)N1CCC(Oc2nccnc2N(C)C)C1 (stereo not given) | 539
31 | COc1ccc(-c2cc(N3CCC(NC(=O)c4ccc(C#N)cc4)C3)n[nH]2)cc1 (stereo not given) | 685
32 | O=C(NC1CCCCCC1)c1ccc2ccnc(N3CCN(c4ccccc4F)CC3)c2c1 | 973
33 | CCOc1ccc(CNC(=O)c2cnc(OC)nc2)cc1 | 732
34 | Cc1cccc(-c2noc(Cn3c(=O)n(-c4ccc(F)cc4)c(=O)c4sccc43)n2)c1 | 1030
35 | COc1ccc(C)cc1Nc1c(-c2nc(C)no2)cnc2nc(C)ccc12 | 764
36 | COc1ccc(S(=O)(=O)N2CCC(c3nc(C(=O)N4CCCC4)c(C)o3)CC2)cc1 | 871
37 | Cc1ccc(NC(=O)N2CCC(n3c(-c4ccco4)nc4cccnc43)C2)cc1Cl (stereo not given) | 806
38 | CCCNC(=O)C1CCN(c2nc3ccsc3c(=O)n2-c2ccc(C)cc2)CC1 | 756
39 | CCN(CC)C(=O)c1ccc2c(c1)N(C(=O)NC)CC2 | 648
40 | CCN1C(=O)CN(C(=O)C2CCCC2)CC12CCOCC2 | 651
41 | CCC1CN(C(=O)N2CCC(C(=O)NCCCN3CCOCC3)CC2)c2ccccc2O1 (stereo not given) | 632
42 | Cc1ccc(S(=O)(=O)NCCn2ncccc2=O)s1 | 637
43 | CC(C)CN1Cc2ccccc2-n2ccnc2C12CCN(C(=O)c1ccoc1)CC2 | 665
44 | CC(C)c1ccc(NC(=O)Cn2cccc2-c2nnc(C3CC3)o2)cc1 | 961
45 | COc1ccccc1-c1noc(Cn2ncn3nc(-c4cc(C)ccc4C)cc3c2=O)n1 | 1100
46 | O=C(C1CCOC1)N1CCC(c2nncn2Cc2ccccc2)CC1 (stereo not given) | 541

Row | Structure (SMILES) | RP-LC retention time [s]
47 | COC(=O)c1c(C)[nH]c(C(=O)N2CCC(CC(=O)NCCc3c(C)noc3C)CC2)c1C | 654
48 | Clc1ccc(CSc2cc(Cl)ncn2)cc1 | 1170
49 | COC(=O)c1nc(NC(=O)Cn2nc3c(cc2=O)CCCC3)sc1C | 710
50 | Cc1cc(C)cc(C(=O)N2CCCC(C(=O)Nc3c(C)cc(C)cc3C)C2)c1 (stereo not given) | 983
51 | CC(C)c1ccc(N2C(=O)C3N=NN(Cc4nc(-c5cccc(Br)c5)no4)C3C2=O)cc1 (stereo not given) | 1170
52 | Cc1ccc(CS(=O)(=O)N2CCC(C3CCNC3)CC2)cc1C (stereo not given) | 666
53 | O=C(CCn1cnc2cc(-c3noc(Cc4cccc(F)c4)n3)ccc21)N1CCCC1 | 726
54 | CCNc1cc(N2CCCC(CCC(=O)N3CCCC(C(=O)OCC)C3)C2)ncn1 (stereo not given) | 664
55 | CCc1nn2c(N3CCN(c4ccccn4)CC3)cc(C)nc2c1-c1ccc(F)cc1 | 686
56 | Cc1cc(O)c(C(C[N+](=O)[O-])c2ccc(Cl)cc2Cl)c(=O)o1 (stereo not given) | 803
57 | Cc1cc(C)c2c(n1)SCCN2C(=O)CCC(=O)NCc1ccc(Cl)cc1 | 696
58 | Cc1nc(-c2cn(C)c3ncccc23)sc1C(=O)Nc1cc(F)cc(F)c1 | 1050
59 | COCCNC(=O)c1nccnc1NC(=O)c1ccc(C)cc1 | 759
60 | Cc1cccc(-c2nc3ccccn3c2NC(=O)NCc2cccc(F)c2)c1 | 669
61 | CCc1noc2nc(CCC(=O)NCc3ccco3)nc(N3CCCCC3)c12 | 829
62 | CCCCOc1ccc(-c2cc3c4nnc(CCC(=O)N5CCN(C(C)C)CC5)n4ccn3n2)cc1 | 692
63 | Cc1nnc2c(NC(=O)C3CCCC3)cccn12 | 644
64 | CC1(C(=O)NC2CCCCC2)Cn2c(ccc2-c2ccco2)C(=O)N1Cc1ccccn1 (stereo not given) | 766
65 | COc1ccc(-c2nnc(N3CCC(C(=O)NCCC(C)C)CC3)o2)cc1 | 838
66 | Cc1nc(CC(=O)Nc2cc(F)cc(F)c2)cs1 | 796
67 | CCOC(=O)c1c(C)c(CCC(=O)NCc2ccc(C)o2)n(C)c1C | 842
68 | Cn1ncc2c(N3CCSCC3)nc(C(=O)N3CCN(c4ccccc4)CC3)nc21 | 830
69 | CCc1ccccc1NC(=O)C1CCN(S(C)(=O)=O)c2cc(C)ccc2O1 (stereo not given) | 880

Row | Structure (SMILES) | RP-LC retention time [s]
70 | Cc1occc1-c1nnc2sc(COc3ccc(F)cc3)nn12 | 939
71 | CC(C)(C)c1csc(-c2csc(S(=O)(=O)NCc3ccccc3F)c2)n1 | 1220
72 | CC(=O)c1ccc(NC(=O)Cn2c(-c3ccc(Cl)cc3)nc(C)cc2=O)cc1 | 1040
73 | O=C(NCCCN1CCCCC1)c1ccc2c(c1)nc1n2CCN(C2CCCCC2)C1=O | 621
74 | COc1ccc(NC(=O)NC2CCN(c3ccc(F)cc3)C2=O)cc1F (stereo not given) | 781
75 | Cc1ccc2c(=O)c3c([nH]c2c1C)CCN(CC(=O)Nc1cccc(Cl)c1C)C3 | 661
76 | Cc1cc(F)ccc1NC(=O)CN1C(=O)C2CCCCN2c2ccc(S(=O)(=O)N(C)C)cc21 (stereo not given) | 896
77 | Cc1cc(C)cc(OCc2nc(CCN(C)C(=O)Nc3ccccc3)no2)c1 | 970
78 | Cc1nnc2n1CCC(NC(=O)Cc1cccs1)CC2 (stereo not given) | 550
79 | Fc1ccc(C2Cn3nnc(-c4nc(-c5ccc(OC(F)(F)F)cc5)no4)c3CO2)cc1 (stereo not given) | 1250
80 | O=C(Nc1ccccc1)C(=O)Nc1ccccc1[N+](=O)[O-] | 917
81 | Cc1cc(C)n2cc(CSc3nc4cc([N+](=O)[O-])ccc4s3)nc2n1 | 623
82 | CC(C)n1c(N2CCN(C(=O)COc3ccc(Cl)cc3)CC2)cc(=O)n(C(C)C)c1=O | 928
83 | Cc1cccn2c(NCc3ccccc3)c(-c3ccccc3OC(=O)C(C)Cl)nc12 (stereo not given) | 1210
84 | Cc1ccc(Cn2c(=O)n(CCNC(=O)c3ccco3)c3ncccc32)cc1 | 760
85 | O=C(CSc1ncnc2c1oc1ccccc12)Nc1nc2ccccc2s1 | 902
86 | Cc1ccc(-c2cc3c4nnc(SCC(=O)Nc5cc(F)ccc5C)n4ccn3n2)cc1C | 1080
87 | CCOC(=O)c1c(C)n(CC(=O)OC)c2ccc(OC)cc12 | 904
88 | O=C(NCCc1ccccc1)N1CCN(c2cnn3cnnc3c2)CC1 | 615
89 | Cc1ccccc1NC(=O)N1CCCC1c1cc(C(C)C)on1 (stereo not given) | 890
90 | O=C(NC1CC1)C1CCc2sc(C(=O)N3CCCCC3)cc2C1 (stereo not given) | 711
